Measured values as given in patent US20020055174A1, “Complex for transferring an anionic substance of interest into a cell” (priority 2000, published 2002).
Entries after “also recorded” stand apart in the source; their conditions may differ. Ends that are not written are not given here.

Assays:
293-EBNA cells = test: Transfection in vitro, luciferase plasmid pTG11056; assay type: cell-based
Description: Cells were plated on 24 well plates at a density of 4×10^4 (293-EBNA ) or 7×10^4 (HeLa, Renca) cells/well in DMEM supplemented with 10% FCS. The next day, the medium was replaced by 200 μl serum-free DMEM and plasmid (pTG11056 or pTG11236)/peptide complexes or plasmid/peptide/lipid complexes were prepared in 30 μl 0.9% NaCl or 5% glucose. After 20 min at room temperature these complexes were added to the cells which were then incubated for 2-3 h at 37° C. and 5% CO2 before 1 ml serum-containing DMEM was added. Approximately 20-hours later, cells were lysed by addition of 100 μl 1× Promega lysis buffer, 20 μl of the lysates were analysed for luciferase activity. Proteins were quantified with the bicinchonic acid (BCA) colorimetric method (Smith, Anal. Biochem. 150 (1985), 76-85).
4×10^4 293-EBNA cells, plated on 24 well plates the day before, were transfected with 0.5 μg, 0.1 μg, 0.05 μg and 0.01 μg of the plasmid pTG11056. The plasmid was either mixed with completely or uncompletely DNA-complexing amounts of ppTG1 in 30 μl 5% glucose and after 20 min at room temperature the mixture was added to the cells which were incubated in 200 μl serum-free medium. Further, pTG11056 was formulated with the established transfection reagents Lipofectin and PEI. […] After twenty hours, cells were washed and luciferase activity was determined in ⅕ of the lysed cells.

plasmid pTG11236 = test: Gel retardation assay (DNA binding)
Description: 3μg of the plasmid pTG11236 were incubated with increasing amounts of the respective peptide in a final volume of 30 μl with 0.9% NaCl. After 20 min of incubation at room temperature, 6 μl 5× loading buffer (glycerol and bromphenol blue in TAE buffer) were added and 10 μl of these solutions were analyzed on a 1% agarose gel in the presence of ethidium bromide.
The ability of ppTG1 peptide to complex DNA was analyzed by gel retardation assays. […] After 20 minutes incubation at room temperature, loading buffer was added and 10 μl of the resulting solution were analyzed on a 1% agarose gel.
ppTG1 derivatives as they are indicated in Materials and Methods, were tested for their capacity to bind plasmid DNA by gel retardation assays.

[1] = test system: WiDr, MDA-MB-435S, SW480 and LoVo; test: Transfection of human tumor cell lines; assay type: cell-based; conditions: ppTG1/plasmid pTG11236 complexes, luciferase day 1
Description: WiDr (ATCC CCL-218), MDA-MB-435S (ATCC HTB-129), SW480 (ATCC CCL-228) and LoVo cell (CCL-229) were cultivated in the appropriate medium with 10% fetal calf serum, 1% gentamycine, 1% glutamine and 3 g/l glucose, in an incubator at 37° C. and 5% CO2.
The transfection efficiencies with plasmid/ppTG1 complexes were tested in the human tumor cells WiDr, MDA-MB-435S, SW480 and LoVo (ATCC) in comparison to lipofectin, PEI and pcTG90/DOPE (1:1) [+/−] 5.

[2] = Liposome leakage assay, POPC liposomes containing calcein; conditions: pH5 and pH7, 20 μg as starting point
Description: Leakage activity was plotted against peptide concentration.
The peptide ppTG1 was tested for its capacity to cause membrane disruption in a liposome leakage assay with POPC liposomes containing the fluorescent product calcein. […] Release of calcein by Triton X-100 treatment was taken as positive control reaction, incubation with water served as negative control. The membranolytic activity of peptide ppTG1 (20 μg as starting point) was compared with those of equal quantities (20 μg) of JTS-1, JTS-1-K13 and KALA.

B6SJL mice = test system: B6SJL mice
Description: Indicated amounts of the luciferase expression plasmid pTG11236 were mixed with ppTG1 and /or pcTG90/DOPE. The resulting formulations were injected intramuscularly(30 μl), intravenously(250 μl) into mice or intratumorally (Renca tumors, 100 μgl). Muscles, tumors or organs were recovered at the indicated points of time, macerated and tested for luciferase activity with the luciferase assay kit from Promega.
60 μg or 30 μg of the plasmid pTG11236 were mixed with peptide ppTG1 and/or with a pcTG90/DOPE 1:2 mixture in 250 μl 5% glucose. After 20 min incubation at room temperature, the complexes were intravenously injected into B6SJL mice. Mice were sacrificed at day 1. The lungs were recovered, total protein was extracted and luciferase activity was analysed.
The potential of gene transfer with mono-component peptide vectors was investigated in vivo. Fifty or sixty μg of the luciferase expression plasmid pTG11236 were complexed with pcTG90/DOPE (1:2) [+/−] 10 in 250 μl 5% glucose (Meyer et al. 2000). The resulting lipoplex vector served as reference for gene transfer studies with pTG11236 complexed with ppTG1, ppTG20 and ppTG32 in 250 μl 5% glucose. Five mice per group were intravenously injected, the animals were sacrificed at day 1 after injection. Lungs were tested for luciferase activity.

[3] = 60 μg pTG11236 with 150 μg ppTG1

## GLFKALLKLLKSLWKLLLKA
293-EBNA cells; 0.05 μg pTG11056 mixed with 0.065 μg ppTG1, charge ratio around 1
  transfection efficiency: still showed high transfection efficiency
293-EBNA cells; 0.5 μg pTG11056 complexed with 0.65 μg ppTG1, charge ratio around 1
  luciferase activities: higher than those observed with complexes formed with Lipofectin or PEI
Plasmid pTG11236; 3 μg pTG11236, 1 μg = 0.35 nmol
  amount of peptide at which 50% of the DNA is complexed: 1 µg
Plasmid pTG11236; 3 μg plasmid DNA (0.8 pmol), 4 μg peptide = 1.4 nmol
  amount of peptide giving retardation of plasmid: 4 µg
[1]
  transfection of human tumor cell lines: successfully transfected; also recorded: can efficiently transfect human tumor cell lines, especially SW480 cells
[2]
  membrane disruption (calcein release): capable of causing membrane disruption
B6SJL mice; [3]
  reporter gene expression after re-administration at day 3: still refractory
  reporter gene expression after re-administration at day 14: re-appearance of reporter gene expression
B6SJL mice; complexes of pTG11236 and ppTG1, i.v., day 1
  mice with gene expression in the lung: 5 out of 5
B6SJL mice; ppTG1/plasmid complexes, data not shown
  gene expression 3 days after injection: dropped 3 days after injection to background levels
